Experimental data from patent publication US20260085283A1, “STEM CELL-DERIVED GASTRULOID MODEL, METHOD FOR CONSTRUCTING SAME, AND USE” (Innovation Center of Suzhou Nanjing Medical University, priority 2022, published 2026).

System: gastruloid model induced from human induced pluripotent stem cells DYR0100
Assay: Thalidomide dosing of the in vitro gastruloid induction model (early embryonic teratogenesis model test)
[1] = day 7, dosed group (5 μM and 10 μM) compared with the control group
[2] = day 7, with the increase of dosed concentration (5 μM, 10 μM), significant statistical difference vs blank control and dimethyl sulfoxide control
[3] = day 7 samples, dosed group (5 μM and 10 μM) compared with the control group

Method: Two gradients of 5 μM and 10 μM were selected, and a blank control group and a dimethyl sulfoxide group (with thalidomide solvent) were added for testing.
When human induced pluripotent stem cells DYR0100 grew to 80-90% confluence, TrypLE Select was used to digest the cells into single cells, and the cells were resuspended in PBS to obtain a cell suspension 1; cell suspension 1 containing 9.0×10^4 cells was taken, 2 mL of the G1ER culture medium containing Y-27632 was added to resuspend the cells, and then 5 μM, 10 μM of 1% % thalidomide, dimethyl sulfoxide solution and a blank control group were added respectively, a total of 4 groups, to obtain a cell suspension 2; the cell suspension 2 was inoculated into a well of an Agreewell 400™ culture dish coated with the anti-adhesion solution (Anti-adhesion rinsing Solution) in advance. After centrifugation at 800 rpm for 2 minutes using a horizontal centrifuge, the cell amount per microwell was 50-75 cells (each well of the Agreewell 400™ culture dish has 1200 microwells, that is, the cell amount in each microwell was 9.0×10^4/1200=75 cells).
On day 2 of the culture, half of the culture medium was replaced with the G1ER culture medium, and 5 μM and 10 μM of 1% % thalidomide, dimethyl sulfoxide solution and a blank control were added respectively. Half of the culture medium was replaced every day until day 3 of the culture.
When the first stage of induction was completed, samples were taken from the four groups, and recorded with white light, then 4% paraformaldehyde was used for fixation for 30 minutes, and relevant immunofluorescence staining was performed for statistical verification.
On day 3 of the culture, 1.75 mL of the first-stage GIER culture medium was discarded, and the second-stage G2EE culture medium was added slowly along the wall, 5 μM and 10 μM of 1% thalidomide, dimethyl sulfoxide solution and a blank control were added respectively, to prevent the formed gastruloids from floating up from the microwells and then fusing.
On day 4 of the culture, 1.75 mL of the second-stage G2EE culture medium was discarded, and the third-stage aG2EE culture medium was added slowly along the wall, and 5 μM and 10 μM of 1% % thalidomide, dimethyl sulfoxide solution and a blank control were added respectively, to prevent the formed gastruloids from floating up from the microwells and then fusing.
On day 5 of the culture, 1.75 mL of the third-stage aG2EE culture medium was discarded, and the fourth-stage bG2EE culture medium was added slowly along the wall, and 5 μM and 10 μM of 1% % thalidomide, dimethyl sulfoxide solution and a blank control were added respectively, to prevent the formed gastruloids from floating up from the microwells and then fusing. After 24 hours, the culture medium was continuously replaced by 1.75 mL (the bG2EE culture medium) and cultured until day 7.
When the four-stage induction was completed, samples were taken from the four groups, and recorded the white light, then 4% paraformaldehyde was used to fix for 30 minutes, and relevant cell nucleus staining was performed for statistical verification.

## O=C1CCC(N2C(=O)c3ccccc3C2=O)C(=O)N1 (stereo not drawn) [Thalidomide]
[1]
  formation of amniotic cavity and yolk sac (DAPI staining): could not be formed
  internal structure of the gastruloids (DAPI staining of cell nucleus): relatively disordered
[2]
  cell amount of the single gastruloid: decreased
  volume of the single gastruloid: decreased
[3]
  internal cavity structure of the gastruloids (white light results): absent
  volume of the gastruloids (white light results): reduced volume
